Entries after “also recorded” stand apart in the source; their conditions may differ.
Columns and labels:
His6-tagged FKBP52 = biological target: T1, His6-tagged FKBP52 (Homo sapiens, UniProt Q02790); assay: [3H]-FK506 binding on Ni-chelated FLASH plate
T1 construct: made in house
T1 sequence (Q02790 1-459): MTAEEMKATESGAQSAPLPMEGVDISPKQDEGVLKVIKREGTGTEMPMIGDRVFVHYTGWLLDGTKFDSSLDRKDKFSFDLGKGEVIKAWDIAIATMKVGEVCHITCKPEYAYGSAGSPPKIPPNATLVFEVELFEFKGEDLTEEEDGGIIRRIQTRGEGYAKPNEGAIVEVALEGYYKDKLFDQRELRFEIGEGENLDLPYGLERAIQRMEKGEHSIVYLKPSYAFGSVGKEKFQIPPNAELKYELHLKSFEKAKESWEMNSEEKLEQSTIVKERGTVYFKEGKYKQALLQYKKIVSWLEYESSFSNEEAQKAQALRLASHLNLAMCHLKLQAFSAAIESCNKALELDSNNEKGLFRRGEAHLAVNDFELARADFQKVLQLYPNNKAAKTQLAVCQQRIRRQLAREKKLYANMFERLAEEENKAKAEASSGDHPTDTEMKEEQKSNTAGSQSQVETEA
Description: Reactions were carried out in triplicate at 25° C. for 30 min. Kd were calculated using methods described by Carreras (Anal. Biochem. 298, 57-61 (2001)).

FKBP52 = biological target: T2, FKBP52 (Mus musculus, UniProt P30416); assay: Affinity precipitation from F-11 cell lysate, FT-ICR-MS and Western analysis; type: binding, rat and mouse hybrid
T2 construct: endogenous in cells; host or cells: F-11 cells (rat DRG x mouse neuroblastoma hybrid), lysate
T2 sequence (P30416 whole entry): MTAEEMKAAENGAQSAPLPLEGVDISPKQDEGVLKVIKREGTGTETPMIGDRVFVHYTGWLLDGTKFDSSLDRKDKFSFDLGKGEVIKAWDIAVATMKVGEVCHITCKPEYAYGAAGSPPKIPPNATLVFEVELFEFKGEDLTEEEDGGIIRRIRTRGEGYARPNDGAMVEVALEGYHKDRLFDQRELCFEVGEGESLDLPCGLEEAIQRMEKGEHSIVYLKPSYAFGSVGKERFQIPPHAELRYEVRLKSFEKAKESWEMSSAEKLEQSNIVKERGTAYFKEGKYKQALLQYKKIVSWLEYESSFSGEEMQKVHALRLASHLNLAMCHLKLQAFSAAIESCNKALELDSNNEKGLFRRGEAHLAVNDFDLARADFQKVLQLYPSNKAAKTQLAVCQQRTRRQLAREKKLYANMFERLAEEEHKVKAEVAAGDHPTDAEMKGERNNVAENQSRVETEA
Description: (§1) Briefly, the amino group of amino-phenyl-butyric acid (1200 mg) was protected with an allyloxycarbonyl group by treating with diallyldicarbonate ([…]) in dioxane:water (3:1; 50 ml) for 3 h at room temperature.
(§2) The reaction was quenched with methanol and the ester product was purified by HPLC with a purity of 99% and characterized by MS and NMR. After removing the allyloxycarbonyl group of the ester product (40 mg) by treatment with Pd(PPh3)4 (2 mg) and dimedone (7 mg) in THF (1.2 ml), the amino group of the product was linked to Affigel-10 matrix (4 ml) in the presence of 2% pyridine in THF.
(§3) F11 cells were grown in culture medium, DMEM supplemented with 10% FBS and 1% pen/Strep, in 75 cm^2 vented flasks in 37° C. incubator with 5% CO2. Cells were harvested at 80% confluence and washed with PBS buffer. Lysis buffer (6 ml; 50 mM Tris, pH 7.4, 250 mM NaCl, 5 mM EDTA, 50 mM NaF, 1 mM Na3VO4, 1% Nonidet P40 (NP40), 0.1% mercaptoethanol and 2% protease inhibitor cocktails) was added to 10^9 cells. Cells were broken by forcing them through a 26-gauge needle, and S-100 supernatant was collected after 15 min centrifugation at 4° C. […] After washes with lysis buffer (2 ml) and then PBS (2 ml), the beads were analyzed on 4-20% SDS-PAGE gel. […] The protein bands (FIG. 3) were cut out and digested with trypsin (0.3 ng) in digestion buffer (30 μl; 0.2% NH4HCO3) at 30° C. overnight. The resulting peptides were purified on C18-resin and submitted for FT-ICR-MS analysis. The FT-ICR-MS data was manually edited and used to search protein databases. The results are shown in FIG. 4 and have the following scores. FK506-binding protein (FKBP52) (P30416, score: 94, expect: 9.6e-05); MS Data of the 59 kDa band: 2753.35; 1710.94; 2215.13; 2363.15; 1298.71; 1215.59; 1000.51; 1000.46; 1790.93; 1381.70; 2746.36; 1316.71; and 1171.60. Voltage dependent L-type calcium channel β1 subunit (Q8R3Z5-03-00-00, score: 133, expect: 1e-09); MS Data of the 52 kDa band: 651.38; 663.39; 779.54; 853.55; 1014.50; 1347.75; 1217.78; 1346.67; 1297.75; 1231.77; 877.52; 853.47; 919.48; 1014.56; 1041.63; 1217.74; 1231.74; 1296.84; 869.58 (major).
(§4) In another experiment, F11 cells were grown in culture medium, DMEM supplemented with 10% FBS and 1% Pen/Strep, in 75 cm^2 vented flasks in a 37° C. incubator with 5% CO2. Cells were harvested at 80% confluence and washed with PBS buffer. To 3×10^8 cells, lysis buffer (2 ml; 50 mM Tris, pH 7.4, 250 mM NaCl, 5 mM EDTA, 50 mM NaF, 1 mM Na3VO4, 1% Nonidet P40, 0.1% mercaptoethanol and 2% protease inhibitor cocktails) was added, and its S-100 supernatant was collected after 15 min centrifugation at 4° C. […] After wash with lysis buffer (2 ml) and then PBS buffer (2 ml), beads were analyzed by SDS-PAGE. […]

[1] = biological target: T3, β1 subunit (CACNB1) of the voltage gated L-type calcium channel (Mus musculus, UniProt Q8R3Z5); assay: as above; type: binding, rat and mouse hybrid
T3 construct: endogenous in cells; host or cells: F-11 cells (rat DRG x mouse neuroblastoma hybrid), lysate
T3 sequence (Q8R3Z5 1-479 isoform Q8R3Z5-3): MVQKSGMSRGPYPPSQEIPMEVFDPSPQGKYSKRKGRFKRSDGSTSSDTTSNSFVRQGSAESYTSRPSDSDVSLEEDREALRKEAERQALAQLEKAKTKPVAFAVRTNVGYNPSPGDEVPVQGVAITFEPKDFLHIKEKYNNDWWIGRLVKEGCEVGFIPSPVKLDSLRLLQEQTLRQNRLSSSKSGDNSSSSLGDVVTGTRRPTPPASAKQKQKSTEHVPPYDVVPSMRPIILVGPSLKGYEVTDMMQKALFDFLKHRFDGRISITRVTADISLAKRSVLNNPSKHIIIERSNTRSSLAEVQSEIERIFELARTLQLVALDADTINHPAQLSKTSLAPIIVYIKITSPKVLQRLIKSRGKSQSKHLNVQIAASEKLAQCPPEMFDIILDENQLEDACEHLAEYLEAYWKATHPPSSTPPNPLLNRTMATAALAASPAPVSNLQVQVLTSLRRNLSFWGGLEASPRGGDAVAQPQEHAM
Description: as §1, §2, §3, §4

SMILES | Kd (His6-tagged FKBP52) | FKBP52 in affinity bead fraction (FKBP52) | L-type calcium channel β1 subunit (CACNB1) in affinity bead fraction [1]
CO[C@H]1C[C@@H]2CC[C@@H](C)[C@@](O)(O2)C(=O)C(=O)N2CCCCC2C(=O)O[C@H]([C@H](C)C[C@@H]2CC[C@@H](O)[C@H](OC)C2)CC(=O)[C@H](C)/C=C(\C)[C@@H](O)[C@@H](OC)C(=O)[C@H](C)C[C@H](C)C2C=C[C@H](/C=C/1C)ON2c1ccccc1 (stereo partly drawn) [Rapamycin analogue I, 9,27-dihydroxy-3-{2-[4-hydroxy-3-methoxycyclohexyl]-1-methylethyl}-10,21-dimethoxy-6,8,12,14,20,26-hexamethyl-37-phenyl-4,9,10,12,13,14,15,18,21,22,23,24,25,26,27,32,33,34,34a-nonadecahydro-3H-23,27-epoxy-18,15-(epoxyimino)pyrido[2,1-c][1,4]oxazacyclohentriacontine-1,5,11,28,29(6H, 31H)-pentone] | 0.55 ± 0.05 nM | major targets; also recorded: detected | major targets; also recorded: detected
CO[C@H]1C[C@@H]2CC[C@@H](C)[C@@](O)(O2)C(=O)C(=O)N2CCCCC2C(=O)O[C@H]([C@H](C)C[C@@H]2CC[C@@H](O)[C@H](OC)C2)CC(=O)[C@H](C)/C=C(\C)[C@@H](O)[C@@H](OC)C(=O)[C@H](C)C[C@H](C)C2CC[C@H](/C=C/1C)ON2c1ccccc1 (stereo partly drawn) [Rapamycin analogue II, 9,27-dihydroxy-3-{2-[4-hydroxy-3-methoxycyclohexyl]-1-methylethyl}-10,21-dimethoxy-6,8,12,14,20,26-hexamethyl-37-phenyl-4,9,10,12,13,14,15,16,17,18,21,22,23,24,25,26,27,32,33,34,34a-henicosahydro-3H-23,27-epoxy-18,15-(epoxyimino)pyrido[2,1-c][1,4]oxazacyclohentriacontine-1,5,11,28,29(6H, 31H)-pentone] | 0.48 ± 0.04 nM | major targets | major targets

— US20100196355A1, “Immunophilin Ligands and Methods for Modulating Immunophilin and Calcium Channel Activity” (Wyeth, priority 2007, published 2010)
